Patent publication US8541572B2

System: TNF-α production in LPS-stimulated human whole blood
Experiment: Inhibition of TNF-α production from human whole blood (hWBA)
Assay type: cell-based
Conditions: Homo sapiens, IC50 for TNF-α production, LPS-stimulated human whole blood; read-out: hWBA

Structure (SMILES) | IC50 [nM]
COc1ccc2c(c1)C(=O)N(C[C@@]1(C#Cc3cccnc3-c3cccnc3)NC(=O)NC1=O)C2 [Compound 2270] | 2110
CCN1CCN(C(=NO)c2cncc(C#C[C@]3(CN4Cc5ccc(OC)cc5C4=O)NC(=O)NC3=O)c2)CC1 [Compound 923] | 435
COc1ccc2c(c1)C(=O)N(C[C@@]1(C#Cc3ccc(C(=NO)N4CCN(C)CC4)cc3)NC(=O)NC1=O)C2 [Compound 943] | 65
COc1ccc2c(c1)C(=O)N(C[C@@]1(C#Cc3ccc(N4CCC5(CC4)NC(=O)NC5=O)nc3)NC(=O)NC1=O)C2 [Compound 2311] | 348
COc1ccc2c(c1)C(=O)N(CC1(C#Cc3cccnc3NCCN(C)C)NC(=O)NC1=O)C2 (stereo not shown) [Compound 2286] | 2000
COc1ccc2c(c1)C(=O)N(C[C@@]1(C#Cc3ccc(C4(C)NC(=O)NC4=O)cc3C)NC(=O)NC1=O)C2 (stereo partly shown) [Compound 2257] | 490

Continued, values first:

IC50 [nM] | Structure (SMILES)
274 | COc1ccc2c(c1)C(=O)N(C[C@@]1(C#Cc3cccc(C(=NO)N4CCOCC4)c3)NC(=O)NC1=O)C2 [Compound 916]
927 | COc1ccc2c(c1)C(=O)N(C[C@@]1(C#Cc3cccnc3-c3cn[nH]c3)NC(=O)NC1=O)C2 [Compound 2266]
633 | COc1ccc2c(c1)C(=O)N(C[C@@]1(C#Cc3cccnc3N3CCOCC3)NC(=O)NC1=O)C2 [Compound 2287]

Same assay, conditions: Homo sapiens, IC50 for inhibition of TNF-α production, LPS-stimulated human whole blood; read-out: hWBA

Structure (SMILES) | IC50 [nM]
COc1ccc2c(c1F)C(=O)N(C[C@@]1(C#Cc3ccc(-c4cccc(N5CCOCC5)n4)c(F)c3)NC(=O)NC1=O)C2 [Compound 996] | 2560
COc1ccc2c(c1F)C(=O)N(C[C@@]1(C#Cc3ccc(CN4CCN(C5CCCCC5)CC4)cc3)NC(=O)NC1=O)C2 [Compound 982] | 255
COc1ccc2c(c1)C(=O)N(C[C@@]1(C#Cc3ccc(C4=NCCN4)c(C)c3)NC(=O)NC1=O)C2 [Compound 1140] | 504
COc1ccc2c(c1F)C(=O)N(C[C@@]1(C#Cc3ccc(-c4cccc(N5CCN(C6CCCCC6)CC5)n4)c(F)c3)NC(=O)NC1=O)C2 [Compound 994] | 2430
COc1ccc2c(c1F)C(=O)N(C[C@]1(C#Cc3ccc(CN4CCN(C5CCCCC5)CC4)cc3)NC(=O)NC1=O)C2 [Compound 985] | 100000

Next, values leading:

IC50 [nM] | Structure (SMILES)
8900 | COc1ccc2c(c1)C(=O)N(C[C@@]1(C#Cc3cnc4ccccc4c3CO)NC(=O)NC1=O)C2 [Compound 2219]
538 | COc1ccc2c(c1)C(=O)N(C[C@@]1(C#Cc3ccc(-n4cn[nH]c4=O)cc3)NC(=O)NC1=O)C2 [Compound 1914]
524 | COc1ccc2c(c1)C(=O)N(C[C@@]1(C#Cc3ccc(-n4cnc(CCNC(C)=O)c4)nc3)NC(=O)NC1=O)C2 [Compound 1130]

Same assay, conditions: IC50 for TNF-α production, LPS-stimulated human whole blood; read-out: hWBA

Structure (SMILES) | IC50 [nM]
COc1ccc2c(c1)C(=O)N(C[C@@]1(C#Cc3ccc(C(=NO)N4CCN(C5CC5)CC4)cc3)NC(=O)NC1=O)C2 [Compound 922] | 92
CCN1CCN(C(CO)c2ccc(C#C[C@]3(CN4Cc5ccc(OC)cc5C4=O)NC(=O)NC3=O)cc2)CC1 (stereo partly shown) [Compound 930] | 504
COc1ccc2c(c1)C(=O)N(C[C@]1(C#Cc3cnc(N)c(C(=O)O)c3)NC(=O)NC1=O)C2 [Compound 903] | 1000
CCCCN1CCN(C(=NO)c2ccc(C#C[C@]3(CN4Cc5ccc(OC)cc5C4=O)NC(=O)NC3=O)cc2)CC1 [Compound 925] | 74
COc1ccc2c(c1)C(=O)N(C[C@@]1(C#Cc3cncc(C(=NO)N4CCCN(C)CC4)c3)NC(=O)NC1=O)C2 [Compound 924] | 1320
COC(=O)C(c1ccc(C#C[C@]2(CN3Cc4ccc(OC)cc4C3=O)NC(=O)NC2=O)cc1)N1CCCNCC1 (stereo partly shown) [Compound 2271] | 566

Further lines, results first:

IC50 [nM] | Structure (SMILES)
84 | COc1ccc2c(c1)C(=O)N(C[C@@]1(C#Cc3ccc(C(=NO)N4CCNC[C@@H]4C)cc3)NC(=O)NC1=O)C2 [Compound 2293]
220 | COc1ccc2c(c1)C(=O)N(C[C@@]1(C#Cc3ccc(C(=NO)N4CCN(C)CC4)s3)NC(=O)NC1=O)C2 [Compound 951]
545 | COc1ccc2c(c1)C(=O)N(C[C@@]1(C#Cc3ccc4oc(C5(C)NC(=O)NC5=O)c(C)c4c3)NC(=O)NC1=O)C2 (stereo partly shown) [Compound 910]
72.4 | CCN1CCN(c2ccc(O)c(-c3ccc(C#C[C@]4(CN5Cc6ccc(OC)cc6C5=O)NC(=O)NC4=O)cc3)n2)CC1 [Compound 936]
443 | CNC(=O)C1(c2ccc(C#C[C@]3(CN4Cc5ccc(OC)cc5C4=O)NC(=O)NC3=O)cc2)CC1 [Compound 2261]
227 | COc1ccc2c(c1)C(=O)N(C[C@@]1(C#Cc3ccc(C4(C(N)=O)CC4)cc3)NC(=O)NC1=O)C2 [Compound 2260]
557 | COc1ccc2c(c1)C(=O)N(CC1(C#Cc3cnc(N4CCC5(CC4)NC(=O)NC5=O)nc3N)NC(=O)NC1=O)C2 (stereo not shown) [Compound 2310]
1590 | COc1ccc2c(c1)C(=O)N(C[C@@]1(C#Cc3cccnc3-c3cncnc3)NC(=O)NC1=O)C2 [Compound 2290]
261 | COc1ccc2c(c1)CCN(C[C@@]1(C#Cc3ccc(C(=NO)N4CCN(C)CC4)cc3)NC(=O)NC1=O)C2=O [Compound 2320]
372 | COc1ccc2c(c1)C(=O)N(C[C@@]1(C#Cc3ccc(-c4cn[nH]c4)nc3)NC(=O)NC1=O)C2 [Compound 2292]

Same assay, conditions: IC50 for inhibition of TNF-α production, LPS-stimulated human whole blood; read-out: hWBA

Structure (SMILES) | IC50 [nM]
CCN1CCN(c2ccc(OC)c(-c3ccc(C#C[C@]4(CN5Cc6ccc(OC)cc6C5=O)NC(=O)NC4=O)cc3)n2)CC1 [Compound 972] | 573
COc1ccc2c(c1)C(=O)N(C[C@@]1(C#Cc3ccc4c(c3)c(O)nn4C)NC(=O)NC1=O)C2 [Compound 712] | 1530
COc1ccc2c(c1)C(=O)N(C[C@@]1(C#Cc3cncc(-c4ccc(O)c(-c5cn[nH]c5)n4)c3)NC(=O)NC1=O)C2 [Compound 1707] | 374
COc1ccc2c(c1)C(=O)N(C[C@@]1(C#Cc3ccc(-c4cccc(C)c4O)nc3)NC(=O)NC1=O)C2 [Compound 1300] | 3500
CCN1CCN(Cc2ccc(C#C[C@]3(CN4Cc5ccc(OC)c(F)c5C4=O)NC(=O)NC3=O)cn2)CC1 [Compound 978] | 156
COc1ccc2c(c1F)C(=O)N(C[C@@]1(C#Cc3ccc(-c4nc(-c5cnn(C)c5)ccc4O)cc3)NC(=O)NC1=O)C2 [Compound 986] | 87
COc1ccc2c(c1F)C(=O)N(C[C@@]1(C#Cc3ccc(-c4nc(-c5cnn(C)c5)ccc4O)c(F)c3)NC(=O)NC1=O)C2 [Compound 987] | 75.4
COc1ccc2c(c1)C(=O)N(C[C@@]1(C#Cc3ccc(-c4nc(-c5cnn(C)c5)ccc4O)cc3)NC(=O)NC1=O)C2 [Compound 973] | 61
COc1ccc2c(c1)C(=O)N(C[C@@]1(C#Cc3ccc(CC4CCN(C)CC4)nc3)NC(=O)NC1=O)C2 [Compound 739] | 195
COc1ccc2c(c1)C(=O)N(C[C@@]1(C#Cc3ccc4c(O)nn(C)c4c3)NC(=O)NC1=O)C2 [Compound 715] | 456
CCOC(=O)Nc1cncc(C#C[C@]2(CN3Cc4ccc(OC)cc4C3=O)NC(=O)NC2=O)c1 [Compound 2243] | 1230
COc1ccc2c(c1)C(=O)N(C[C@@]1(C#Cc3nc(N)ccc3O)NC(=O)NC1=O)C2 [Compound 1921] | 808
COc1ccc2c(c1)C(=O)N(C[C@@]1(C#Cc3ccc([C@@]4(CN5Cc6ccc(OC)cc6C5=O)NC(=O)NC4=O)cc3)NC(=O)NC1=O)C2 [Compound 2217] | 849
COc1ccc2c(c1)C(=O)N(C[C@@]1(C#Cc3ccc(Nc4c(NCCN(C)C)c(=O)c4=O)cc3)NC(=O)NC1=O)C2 [Compound 1307] | 161
COc1ccc2c(c1)C(=O)N(C[C@@]1(C#Cc3ccc(N4CCNC4=O)cc3)NC(=O)NC1=O)C2 [Compound 1150] | 1620
COc1ccc2c(c1)C(=O)N(C[C@@]1(C#Cc3ccc(-n4cnc(CCNC(C)=O)c4)cc3)NC(=O)NC1=O)C2 [Compound 1120] | 453
COc1ccc2c(c1)C(=O)N(C[C@@]1(C#Cc3nc(N4CC[C@H](O)C4=O)ccc3OC)NC(=O)NC1=O)C2 [Compound 1504] | 3590
CCN1CCN(Cc2ccc(C#C[C@]3(CN4Cc5ccc(OC)c(F)c5C4=O)NC(=O)NC3=O)cc2F)CC1 [Compound 983] | 250

Continued, values first:

IC50 [nM] | Structure (SMILES)
109 | COc1ccc2c(c1F)C(=O)N(C[C@@]1(C#Cc3ccc(C(CN)N4CCC(N)C4)cc3)NC(=O)NC1=O)C2 (stereo partly shown) [Compound 1704]
4150 | COc1ccc2c(c1F)C(=O)N(C[C@@]1(C#Cc3ccc(-c4cccc(N5CCSCC5)n4)cc3)NC(=O)NC1=O)C2 [Compound 999]
10000 | COc1ccc2c(c1)C(=O)N(C[C@@]1(C#Cc3nc(-c4cnc(N(C)C)nc4)ccc3OC)NC(=O)NC1=O)C2 [Compound 1510]
308 | CCN1CCN(C(=O)c2ccc(C#C[C@]3(CN4Cc5ccc(OC)c(F)c5C4=O)NC(=O)NC3=O)cc2)CC1 [Compound 964]
42.8 | COc1ccc2c(c1)C(=O)N(C[C@@]1(C#Cc3ccc(-c4nc(-c5cnn(C)c5)ccc4OC(=O)C(C)(C)C)cc3)NC(=O)NC1=O)C2 [Compound 990]
3360 | CCN1CCN(C(=O)C2CCC(=O)N2c2ccc(OC)c(C#C[C@]3(CN4Cc5ccc(OC)cc5C4=O)NC(=O)NC3=O)n2)CC1 (stereo partly shown) [Compound 1917]
226 | COc1ccc2c(c1F)C(=O)N(C[C@@]1(C#Cc3ccc4c(=O)[nH][nH]c4c3)NC(=O)NC1=O)C2 [Compound 301]
169 | COc1ccc2c(c1)C(=O)N(C[C@@]1(C#Cc3ccc(Nc4c(NCCN5CCOCC5)c(=O)c4=O)cc3)NC(=O)NC1=O)C2 [Compound 1306]
244 | COc1ccc2c(c1)C(=O)N(C[C@@]1(C#Cc3ccc(-c4nnc(N)o4)cc3)NC(=O)NC1=O)C2 [Compound 1919]
243 | COc1ccc2c(c1)C(=O)N(C[C@@]1(C#Cc3ccc(-n4c(C)n[nH]c4=O)cc3)NC(=O)NC1=O)C2 [Compound 1915]
808 | CCN1CCN(c2cccc(-c3ccc(C#C[C@]4(CN5Cc6ccc(OC)c(F)c6C5=O)NC(=O)NC4=O)cc3F)n2)CC1 [Compound 992]
416 | COc1ccc2c(c1)C(=O)N(C[C@@]1(C#Cc3ccc(N4C(=O)CCC4C(=O)N4CCN(C)CC4)cc3)NC(=O)NC1=O)C2 (stereo partly shown) [Compound 1905]
1010 | COc1ccc2c(c1)C(=O)N(C[C@@]1(C#Cc3ccc4c(-c5ccncc5)n[nH]c4c3)NC(=O)NC1=O)C2 [Compound 734]
